Results as given in paper PMC4908180 (American Journal of Human Genetics, 2016).

Target: 6His-tagged human FADS isoform 2 (FADS2), WT (Homo sapiens, UniProt Q8NFF5)
Test: UV/Vis spectra
Format: binding
Conditions: reaction product, non-covalent; bound flavin as purified

6His-tagged human FADS isoform 2 (FADS2), WT, sequence (Q8NFF5 98-587): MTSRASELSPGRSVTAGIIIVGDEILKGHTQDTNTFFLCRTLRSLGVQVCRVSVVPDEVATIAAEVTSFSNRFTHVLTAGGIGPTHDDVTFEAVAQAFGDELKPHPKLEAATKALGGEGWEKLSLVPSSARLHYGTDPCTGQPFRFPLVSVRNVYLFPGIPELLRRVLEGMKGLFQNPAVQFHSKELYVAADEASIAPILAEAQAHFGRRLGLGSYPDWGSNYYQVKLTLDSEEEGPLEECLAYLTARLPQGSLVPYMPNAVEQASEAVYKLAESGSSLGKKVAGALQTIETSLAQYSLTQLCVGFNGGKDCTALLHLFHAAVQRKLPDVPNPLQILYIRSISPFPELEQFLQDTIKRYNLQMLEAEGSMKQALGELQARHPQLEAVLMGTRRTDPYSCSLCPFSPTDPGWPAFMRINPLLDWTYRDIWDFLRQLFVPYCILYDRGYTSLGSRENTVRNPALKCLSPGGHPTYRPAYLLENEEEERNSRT

SMILES: Cc1cc2nc3c(=O)[nH]c(=O)nc-3n(C[C@H](O)[C@H](O)[C@H](O)COP(=O)(O)OP(=O)(O)OC[C@H]3O[C@@H](n4cnc5c(N)ncnc54)[C@H](O)[C@@H]3O)c2cc1C [FAD]
- UV/Vis spectra (FAD saturation of purified protein): Spectrophotometric analysis of the purified WT, p.Ser495del, and p.Arg530Cys FADS2 proteins
